Assay results taken from patent US20240059704A1, “Cereblon Ligands and Uses Thereof” (REGENTS OF THE UNIVERSITY OF MICHIGAN, priority 2022, published 2024).
Where a name gives a salt, the structure may show the parent alone.

Key:
ER = ER (Homo sapiens (Human), UniProt P03372); assay: In-cell western blot analysis (ICW), relative ER percentage in treated cells; type: cell-based; details: ER degradation, 16 hours
Protocol: In-cell western blot analysis. Cells are seeded in multi-well plates (e.g., at 40,000 or 10,000 cells/well). Diluted compounds at certain concentration are added (final 0.5% DMSO) and cells are incubated for certain period of time (e.g., 16 hours). Formaldehyde (e.g., PBS:FA=9:1) is added and followed by washing with PBS. The cells are blocked with Licor blocking buffer (Li-Cor). The relative ER percentage in treated cells were obtained by comparing the values of treated wells to those in untreated and DMSO-treated wells as 100%.
In-cell western blot analysis. a. seed cells in black-sided/clear bottom 96- or 384-well plates at 40,000 or 10,000 cells/well, overnight; b. add diluted compounds (final 0.5% DMSO), 16 hours. 16 h later, remove medium, add 100 μL or 25 μL of 3.7-4.0% formaldehyde (PBS:FA=9:1), RT 20 min, no shaking; c. wash with PBS, and permeabilized with 100 μL or 25 μL/well of 1×PBS+0.1% Triton X-100 10 minutes; d. block with 100 μL or 25 μL Licor blocking buffer (Li-Cor), RT 1h, moderate shaking; d. Add 100 μL or 25 μL of anti-ER (cs-8644, 1:500-1,000)+GAPDH (Millipore MAB374, 1:1000) in Block+0.05% Tween 20. RT 2h, gentle shaking. Negative control: cells plus secondary antibodies (no primary antibodies); e. wash×4 with PBS+0.05-0.1% Tween 20, gentel shaking; f. anti-rabbit-680 and anti-mouse-800 (both 1:1000 in LiCor block+0.05% Tween20, RT 1h, gentle shaking, no light. LI-COR: 0.2% to reduce background; g. wash×4 with PBS+0.05% Tween 20, gental shaking; h. add 100 μL or 25 μL of PBS to each well and read on CLX plate reader. The relative ER percentage in treated cells were obtained by comparing the values of treated wells to those in untreated and DMSO-treated wells as 100%.

T47D cell line = assay: Cell growth inhibition in T47D cell line; type: cell-based; details: Homo sapiens, μM, class key in nM
Protocol: Cell Growth Assay. The cells were seeded at certain concentration (e.g., at 1500/well) in multi-well plates overnight. Cells are subsequently treated with the compounds. A certain period of time (e.g., 4 days) after the compound treatment, 10% WST-8 reagent was added to the culture medium and incubate under certain condition (e.g., in a CO2 incubator at 37° C. for 2.5 hours). The absorbance is measured on each sample using a microplate reader at certain wavelength (e.g., 450 nm). The relative absorbance is calculated against the vehicle control from three individually repeats.

[1] = target: wild-type human CRBN protein (Homo sapiens (Human), UniProt Q96SW2); assay: Cereblon Binding Assay (Cisbio Cereblon Binding Kit, TR-FRET); details: GST-tagged wild-type human CRBN, XL665-labelled Thalidomide
Sequence of wild-type human CRBN protein (Q96SW2 whole entry): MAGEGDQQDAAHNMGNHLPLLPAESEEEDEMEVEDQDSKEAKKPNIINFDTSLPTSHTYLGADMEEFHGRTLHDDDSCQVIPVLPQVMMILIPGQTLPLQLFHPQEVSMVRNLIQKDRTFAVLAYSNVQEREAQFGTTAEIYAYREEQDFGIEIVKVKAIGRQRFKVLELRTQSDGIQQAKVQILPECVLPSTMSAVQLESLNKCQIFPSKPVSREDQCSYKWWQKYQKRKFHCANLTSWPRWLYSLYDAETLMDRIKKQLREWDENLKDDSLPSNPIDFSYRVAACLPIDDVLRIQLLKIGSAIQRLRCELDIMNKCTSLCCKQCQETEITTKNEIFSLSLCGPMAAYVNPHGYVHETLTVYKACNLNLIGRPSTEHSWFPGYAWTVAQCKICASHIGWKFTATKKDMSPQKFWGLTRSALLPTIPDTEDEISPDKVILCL
Protocol: The binding to cereblon (CRBN) was determined using the Cereblon Binding Kit (Cisbio, #64BDCRBNPEG) following the manufacturer's instruction. Briefly, serially diluted compounds were incubated with GST-tagged wild-type human CRBN protein, XL665-labelled Thalidomide and Europium Cryptate labelled GST antibody at room temperature for about 3 hours. Time Resolved Fluorescence Resonance Energy Transfer (TR-FRET) measurements were acquired on a CALRIOstar plate reader with MARS data analysis software (BMG Labtech), with the following settings: 665/10 nm and 620/10 nm emission, 60 […]. The TR-FRET ratio was taken as the 665/620 nm intensity ratio.

CRBN/DDB1 = CRBN/DDB1 (Homo sapiens (Human), UniProt Q96SW2); details: HTRF, His tagged CRBN+DDB-DLS7+CXU4, Cy5-labeled Thalidomide probe; read-out: CRBN Binding IC50
Sequence of CRBN/DDB1 (Q96SW2 whole entry): as above
Sequence of CRBN/DDB1 (Q16531 whole entry partner): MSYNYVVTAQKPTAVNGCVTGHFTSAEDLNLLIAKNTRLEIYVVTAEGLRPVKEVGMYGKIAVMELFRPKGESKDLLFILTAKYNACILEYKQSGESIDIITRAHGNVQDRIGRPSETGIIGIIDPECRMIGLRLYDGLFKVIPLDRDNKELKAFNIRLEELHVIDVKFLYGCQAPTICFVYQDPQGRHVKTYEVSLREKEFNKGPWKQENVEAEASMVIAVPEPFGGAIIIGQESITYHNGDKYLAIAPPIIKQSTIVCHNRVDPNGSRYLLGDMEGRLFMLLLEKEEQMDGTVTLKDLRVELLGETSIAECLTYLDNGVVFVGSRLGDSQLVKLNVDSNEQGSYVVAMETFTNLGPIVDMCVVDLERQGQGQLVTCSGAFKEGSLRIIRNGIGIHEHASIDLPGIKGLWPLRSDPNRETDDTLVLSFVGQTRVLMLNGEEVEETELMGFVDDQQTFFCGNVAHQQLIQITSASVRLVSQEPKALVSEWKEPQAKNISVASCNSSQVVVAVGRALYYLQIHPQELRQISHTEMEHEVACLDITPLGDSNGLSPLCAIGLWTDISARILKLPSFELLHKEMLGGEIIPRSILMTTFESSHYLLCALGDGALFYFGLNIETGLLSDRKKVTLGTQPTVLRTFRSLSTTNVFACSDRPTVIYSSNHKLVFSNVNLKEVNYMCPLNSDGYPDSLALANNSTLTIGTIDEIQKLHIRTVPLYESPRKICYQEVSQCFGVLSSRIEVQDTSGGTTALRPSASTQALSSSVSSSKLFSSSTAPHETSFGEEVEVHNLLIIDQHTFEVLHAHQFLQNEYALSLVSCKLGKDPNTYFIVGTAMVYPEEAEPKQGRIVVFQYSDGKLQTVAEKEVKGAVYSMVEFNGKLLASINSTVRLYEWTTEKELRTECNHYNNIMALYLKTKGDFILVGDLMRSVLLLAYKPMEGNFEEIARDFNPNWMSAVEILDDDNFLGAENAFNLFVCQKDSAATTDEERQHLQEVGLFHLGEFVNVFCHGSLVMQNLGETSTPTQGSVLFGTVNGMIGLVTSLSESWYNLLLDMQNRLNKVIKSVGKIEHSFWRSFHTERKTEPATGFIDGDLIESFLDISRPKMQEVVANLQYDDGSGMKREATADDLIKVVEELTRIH
Protocol: The binding potency was determined using HTRF assay technology (Perkin Elmer). Compounds were serially diluted in DMSO and 0.2 μL volume was transferred to white 384-well plate.

Sequence of ER (P03372 whole entry): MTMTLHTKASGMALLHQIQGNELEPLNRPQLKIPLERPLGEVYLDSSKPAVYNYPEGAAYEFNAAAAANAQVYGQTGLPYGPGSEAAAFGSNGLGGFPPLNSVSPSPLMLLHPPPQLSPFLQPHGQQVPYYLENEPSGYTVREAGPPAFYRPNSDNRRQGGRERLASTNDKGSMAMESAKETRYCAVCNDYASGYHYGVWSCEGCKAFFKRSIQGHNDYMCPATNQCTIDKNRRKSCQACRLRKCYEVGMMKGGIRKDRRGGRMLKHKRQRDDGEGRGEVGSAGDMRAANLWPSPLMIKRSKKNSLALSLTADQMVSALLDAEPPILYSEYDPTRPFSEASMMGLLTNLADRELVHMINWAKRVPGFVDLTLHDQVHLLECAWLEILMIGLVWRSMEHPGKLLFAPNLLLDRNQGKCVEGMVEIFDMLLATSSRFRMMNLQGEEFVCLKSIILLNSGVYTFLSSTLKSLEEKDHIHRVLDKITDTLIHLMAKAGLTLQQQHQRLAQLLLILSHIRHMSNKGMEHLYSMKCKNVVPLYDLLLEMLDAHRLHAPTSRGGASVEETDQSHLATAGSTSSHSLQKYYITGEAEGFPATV

SMILES	DC50 (ER) [nM]	IC50 (T47D cell line) [µM]	IC50 [1] [nM]	IC50 (CRBN/DDB1) [nM]
O=C1CC[C@H](N2Cc3c(ccc4c3OCC3(CCN(CC5COC6(CCN(c7ccc([C@@H]8c9ccc(O)cc9CC[C@@H]8c8ccccc8)cc7)CC6)C5)CC3)O4)C2=O)C(=O)N1 (stereo partly drawn) [THP-B373]	< 10	< 0.001		
O=C1CCC(N2Cc3c(ccc4c3OCC3(CN(CC5CCC6(CC5)CN(c5ccc([C@@H]7c8ccc(O)cc8CC[C@@H]7c7ccccc7)cc5)C6)C3)O4)C2=O)C(=O)N1 (stereo partly drawn) [THP-B376]	10 to 100	< 0.001		
O=C1CCC(N2C(=O)c3cc4c(cc3C2=O)OC2(CNC2)CO4)C(=O)N1 (stereo not drawn) [Compound B5, 7′-(2,6-dioxopiperidin-3-yl)-7′-hydro-3′H,6′H-spiro[azetidine-3,2′-[1,4]dioxino[2,3-f]isoindole]-6′,8′-dione]			4630	
O=C1CC[C@H](N2Cc3cc4c(c(F)c3C2=O)OCC2(CCN(CC3CC5(CCN(c6ccc([C@@H]7c8ccc(O)cc8CC[C@@H]7c7ccccc7)cc6)CC5)C3)CC2)O4)C(=O)N1 [THP-B384]	> 100	0.001 to 0.01		
O=C1CC[C@H](N2Cc3cc4c(cc3C2=O)OCC2(CN(CC3CC5(CCN(c6ccc([C@@H]7c8ccc(O)cc8CC[C@@H]7c7ccccc7)cc6)CC5)C3)C2)O4)C(=O)N1 [THP-B394, (S)-3-(1-((7-(4-((1R,2S)-6-hydroxy-2-phenyl-1,2,3,4-tetrahydronaphthalen-1-yl)phenyl)-7-azaspiro[3.5]nonan-2-yl)methyl)-6′-oxo-6′,8′-dihydro-3′H,7′H-spiro[azetidine-3,2′-[1,4]dioxino[2,3-f]isoindol]-7′-yl)piperidine-2,6-dione]		0.001 to 0.01		
O=C1CC[C@H](N2Cc3cc4c(c(F)c3C2=O)OCC2(CCN(CC3CCN(c5ccc([C@@H]6c7ccc(O)cc7CC[C@@H]6c6ccccc6)cc5)CC3)CC2)O4)C(=O)N1 [THP-B383, (S)-3-(5′-fluoro-1-((1-(4-((1R,2S)-6-hydroxy-2-phenyl-1,2,3,4-tetrahydronaphthalen-1-yl)phenyl)piperidin-4-yl)methyl)-6′-oxo-6′,8′-dihydro-3′H,7′H-spiro[piperidine-4,2′-[1,4]dioxino[2,3-f]isoindol]-7′-yl)piperidine-2,6-dione]	> 100	> 0.01		
O=C1CCC(N2Cc3c(ccc4c3OC3(CCNCC3)CC4)C2=O)C(=O)N1 (stereo not drawn) [Compound A2, 3-(7′-oxo-3′,4′,7′,9′-tetrahydro-8′H-spiro[piperidine-4,2′-pyrano[2,3-e]isoindol]-8′-yl)piperidine-2,6-dione]				620
O=C1CCC(N2Cc3c(ccc4c3OCC3(CN(CC5CCN(c6ccc([C@@H]7c8ccc(O)cc8CC[C@@H]7c7ccccc7)cc6)CC5)C3)O4)C2=O)C(=O)N1 (stereo partly drawn) [THP-B367]	> 100	0.001 to 0.01		
O=C1CCC(N2Cc3c(ccc4c3OCC3(CN(CC5CC6(CCN(c7ccc([C@@H]8c9ccc(O)cc9CC[C@@H]8c8ccccc8)cc7)CC6)C5)C3)O4)C2=O)C(=O)N1 (stereo partly drawn) [THP-B368]	> 100	0.001 to 0.01		
O=C1CC[C@H](N2Cc3c(ccc4c3OCC3(CCN(CC5CCC6(CCN(c7ccc([C@@H]8c9ccc(O)cc9CC[C@@H]8c8ccccc8)cc7)CC6)O5)CC3)O4)C2=O)C(=O)N1 (stereo partly drawn) [THP-B372]	10 to 100	0.001 to 0.01		
O=C1CC[C@H](N2Cc3c(ccc4c3OCC3(CCN(CC5CC6(CCN(c7ccc([C@@H]8c9ccc(O)cc9CC[C@@H]8c8ccccc8)cc7)CC6)C5)CC3)O4)C2=O)C(=O)N1 [THP-B371]	< 10	< 0.001		
O=C1CCC(N2Cc3c(ccc4c3OCC3(CNC3)O4)C2=O)C(=O)N1 (stereo not drawn) [Compound B2, 3-(7′-oxo-7′,9′-dihydro-2′H,8′H-spiro[azetidine-3,3′-[1,4]dioxino[2,3-e]isoindol]-8′-yl)piperidine-2,6-dione]			259	
O=C1CCC(N2Cc3c(ccc4c3OCC3(CN(CC5CCC6(CCN(c7ccc([C@@H]8c9ccc(O)cc9CC[C@@H]8c8ccccc8)cc7)CC6)OC5)C3)O4)C2=O)C(=O)N1 (stereo partly drawn) [THP-B386]	> 100	0.001 to 0.01		
O=C1CCC(N2Cc3c(ccc4c3OC3(C=C4)CNC3)C2=O)C(=O)N1 (stereo not drawn) [Compound A3, 3-(7′-oxo-7′,9′-dihydro-8′H-spiro[azetidine-3,2′-pyrano[2,3-e]isoindol]-8′-yl)piperidine-2,6-dione hydrochloride]				1300
O=C1CCC(N2C(=O)c3cc4c(cc3C2=O)OC2(CO4)CN(CC3CC4(CCN(c5ccc([C@@H]6c7ccc(O)cc7CC[C@@H]6c6ccccc6)cc5)CC4)C3)C2)C(=O)N1 (stereo partly drawn) [THP-B385]	> 100	0.001 to 0.01		
O=C1CC[C@H](N2Cc3cc4c(c(F)c3C2=O)OCC2(CCNCC2)O4)C(=O)N1 [Compound B3, (S)-3-(5′-fluoro-6′-oxo-6′,8′-dihydro-3′H,7′H-spiro[piperidine-4,2′-[1,4]dioxino[2,3-f]isoindol]-7′-yl)piperidine-2,6-dione]			1730	
O=C1CCC(N2Cc3c(ccc4c3OCC3(CN(CC5COC6(CCN(c7ccc([C@@H]8c9ccc(O)cc9CC[C@@H]8c8ccccc8)cc7)CC6)OC5)C3)O4)C2=O)C(=O)N1 (stereo partly drawn) [THP-B377]	10 to 100	< 0.001		
O=C1CCC(N2Cc3c(ccc4c3OC3(CC4)CNC3)C2=O)C(=O)N1 (stereo not drawn) [Compound A4, 3-(7′-oxo-3′,4′,7′,9′-tetrahydro-8′H-spiro[azetidine-3,2′-pyrano[2,3-e]isoindol]-8′-yl)piperidine-2,6-dione hydrochloride]				5200
O=C1CC[C@H](N2Cc3c(ccc4c3OCC3(CCNCC3)O4)C2=O)C(=O)N1 [Compound B1, (S)-3-(7′-oxo-7′,9′-dihydro-2′H,8′H-spiro[piperidine-4,3′-[1,4]dioxino[2,3-e]isoindol]-8′-yl)piperidine-2,6-dione]			330	
O=C1CC[C@H](N2Cc3c(ccc4c3OCC3(CCN(CC5CCN(c6ccc([C@@H]7c8ccc(O)cc8CC[C@@H]7c7ccccc7)cc6)CC5)CC3)O4)C2=O)C(=O)N1 [THP-B369]	10 to 100	< 0.001		
O=C1CCC(N2Cc3c(ccc4c3OC3(C=C4)CCNCC3)C2=O)C(=O)N1 (stereo not drawn) [Compound A1, 3-(7′-oxo-7′,9′-dihydro-8′H-spiro[piperidine-4,2′-pyrano[2,3-e]isoindol]-8′-yl)piperidine-2,6-dione]				1100
O=C1CC[C@H](N2Cc3cc4c(cc3C2=O)OCC2(CNC2)O4)C(=O)N1 [Compound B4, (S)-3-(6′-oxo-6′,8′-dihydro-3′H,7′H-spiro[azetidine-3,2′-[1,4]dioxino[2,3-f]isoindol]-7′-yl)piperidine-2,6-dione]			4330	
O=C1CC[C@H](N2Cc3c(ccc4c3OCC3(CCN(CC5COC6(CCN(c7ccc([C@@H]8c9ccc(O)cc9CC[C@@H]8c8ccccc8)cc7)CC6)OC5)CC3)O4)C2=O)C(=O)N1 [THP-B374]	< 10	< 0.001		
